Reference: PMC5919452 (Japanese Journal of Cancer Research : Gann, 1994)
pIC50: −log10 of the molar value.

What was measured:
[1] = target: epidermal growth factor (EGF) receptor kinase (Homo sapiens, UniProt P00533); test: EGF receptor kinase inhibition; format: biochemical; settings: read-out: IC50 for epidermal growth factor (EGF) receptor kinase
erbB‐2 = erbB‐2 (Homo sapiens, UniProt P04626); test: erbB-2 tyrosine kinase inhibition; format: biochemical; settings: read-out: IC50 for erbB‐2
p43^v‐abl = test: p43v-abl tyrosine kinase inhibition; format: biochemical; settings: read-out: IC50 for p43^v‐abl
insulin receptor kinase = insulin receptor kinase (Homo sapiens, UniProt P06213); test: insulin receptor kinase inhibition; format: biochemical; settings: read-out: IC50 for insulin receptor kinase
Sequence of insulin receptor kinase (P06213 28-1382): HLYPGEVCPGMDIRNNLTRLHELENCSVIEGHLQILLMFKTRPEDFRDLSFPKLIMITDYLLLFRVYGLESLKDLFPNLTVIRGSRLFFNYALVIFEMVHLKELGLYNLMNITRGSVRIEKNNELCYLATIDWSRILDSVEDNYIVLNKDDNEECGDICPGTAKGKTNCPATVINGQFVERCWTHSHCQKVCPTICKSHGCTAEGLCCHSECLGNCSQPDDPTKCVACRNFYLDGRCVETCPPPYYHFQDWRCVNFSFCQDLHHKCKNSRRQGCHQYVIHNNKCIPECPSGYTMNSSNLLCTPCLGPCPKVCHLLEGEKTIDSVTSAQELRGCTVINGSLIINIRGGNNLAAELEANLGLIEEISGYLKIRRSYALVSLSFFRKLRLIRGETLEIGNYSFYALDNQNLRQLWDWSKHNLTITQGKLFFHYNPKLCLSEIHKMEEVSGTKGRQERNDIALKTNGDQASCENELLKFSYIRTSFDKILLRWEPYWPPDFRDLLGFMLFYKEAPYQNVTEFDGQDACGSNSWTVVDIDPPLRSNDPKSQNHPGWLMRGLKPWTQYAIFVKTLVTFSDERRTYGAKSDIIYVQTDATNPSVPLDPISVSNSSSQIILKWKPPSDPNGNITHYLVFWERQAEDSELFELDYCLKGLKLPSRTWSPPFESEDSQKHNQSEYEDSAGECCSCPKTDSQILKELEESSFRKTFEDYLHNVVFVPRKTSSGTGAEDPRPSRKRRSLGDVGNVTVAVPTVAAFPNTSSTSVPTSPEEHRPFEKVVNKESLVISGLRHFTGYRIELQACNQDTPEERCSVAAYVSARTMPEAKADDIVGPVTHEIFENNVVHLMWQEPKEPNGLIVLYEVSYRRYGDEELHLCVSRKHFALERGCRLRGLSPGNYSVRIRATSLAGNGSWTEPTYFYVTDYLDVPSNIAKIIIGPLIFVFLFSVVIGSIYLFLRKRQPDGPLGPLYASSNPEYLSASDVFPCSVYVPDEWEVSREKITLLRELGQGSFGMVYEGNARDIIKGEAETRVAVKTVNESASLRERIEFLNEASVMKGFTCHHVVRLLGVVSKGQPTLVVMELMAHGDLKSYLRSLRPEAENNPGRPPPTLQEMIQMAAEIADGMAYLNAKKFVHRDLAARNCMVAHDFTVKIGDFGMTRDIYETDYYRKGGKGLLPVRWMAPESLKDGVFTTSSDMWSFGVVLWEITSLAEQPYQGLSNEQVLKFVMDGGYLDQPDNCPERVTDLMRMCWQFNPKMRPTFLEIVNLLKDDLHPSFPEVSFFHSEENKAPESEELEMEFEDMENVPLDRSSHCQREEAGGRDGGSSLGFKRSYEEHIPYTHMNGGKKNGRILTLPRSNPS

p60^c‐src = p60^c‐src (Homo sapiens, UniProt P12931); test: p60c-src tyrosine kinase inhibition; format: biochemical; settings: read-out: IC50 for p60^c‐src
protein kinase C = protein kinase C inhibition; format: biochemical; settings: read-out: IC50 for protein kinase C; serine/threonine kinase
Cdc2 kinase = Cdc2 kinase (Homo sapiens, UniProt P06493); test: Cdc2 kinase inhibition; format: biochemical; settings: 20 μM
casein kinase I = casein kinase I inhibition; format: biochemical; settings: 20 μM
casein kinase II = casein kinase II inhibition; format: biochemical; settings: 20 μM
[2] = tested on: cAMP‐dependent protein kinase; test: cAMP-dependent protein kinase inhibition; format: biochemical; settings: 20 μM
EGF receptor [3] = target: T1, EGF receptor (Homo sapiens, UniProt P00533); test: kinetic study of kinase inhibition; format: biochemical
T1 sequence (P00533 25-1210): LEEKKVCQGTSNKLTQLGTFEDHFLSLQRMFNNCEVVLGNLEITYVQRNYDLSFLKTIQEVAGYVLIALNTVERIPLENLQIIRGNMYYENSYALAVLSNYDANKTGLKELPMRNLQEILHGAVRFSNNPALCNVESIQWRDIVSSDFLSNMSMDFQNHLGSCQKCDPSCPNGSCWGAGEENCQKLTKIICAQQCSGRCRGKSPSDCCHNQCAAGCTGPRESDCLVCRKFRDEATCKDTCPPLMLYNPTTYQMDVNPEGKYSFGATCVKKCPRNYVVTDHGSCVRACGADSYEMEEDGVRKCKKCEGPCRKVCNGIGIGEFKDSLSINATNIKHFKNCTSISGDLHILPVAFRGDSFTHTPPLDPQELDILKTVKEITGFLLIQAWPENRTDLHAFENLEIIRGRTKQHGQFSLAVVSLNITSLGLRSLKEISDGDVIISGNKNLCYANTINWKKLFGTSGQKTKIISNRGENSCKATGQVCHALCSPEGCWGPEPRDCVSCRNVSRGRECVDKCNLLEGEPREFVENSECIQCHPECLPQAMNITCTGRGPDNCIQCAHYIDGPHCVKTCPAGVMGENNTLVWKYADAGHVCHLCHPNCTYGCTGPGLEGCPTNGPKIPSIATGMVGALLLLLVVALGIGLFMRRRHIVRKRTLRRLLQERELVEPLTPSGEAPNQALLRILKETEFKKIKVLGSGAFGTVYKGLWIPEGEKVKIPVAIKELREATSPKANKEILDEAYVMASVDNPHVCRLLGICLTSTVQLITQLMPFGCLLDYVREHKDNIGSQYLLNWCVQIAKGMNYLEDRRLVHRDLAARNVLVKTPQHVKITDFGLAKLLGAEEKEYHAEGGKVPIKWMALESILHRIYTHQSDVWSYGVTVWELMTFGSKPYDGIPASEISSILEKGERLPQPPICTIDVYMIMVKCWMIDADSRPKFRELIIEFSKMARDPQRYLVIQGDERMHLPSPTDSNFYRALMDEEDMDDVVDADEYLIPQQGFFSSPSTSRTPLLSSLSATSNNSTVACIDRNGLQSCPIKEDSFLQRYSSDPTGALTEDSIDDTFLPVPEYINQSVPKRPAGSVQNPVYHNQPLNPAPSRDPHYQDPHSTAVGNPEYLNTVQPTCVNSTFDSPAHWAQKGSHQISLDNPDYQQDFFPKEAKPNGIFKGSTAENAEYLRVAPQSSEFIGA

EGF receptor [4] = target: T1, EGF receptor; test: autophosphorylation of EGF receptor in A431 cells; format: cell-based

Sequence of erbB‐2 (P04626 23-1255, species assumed): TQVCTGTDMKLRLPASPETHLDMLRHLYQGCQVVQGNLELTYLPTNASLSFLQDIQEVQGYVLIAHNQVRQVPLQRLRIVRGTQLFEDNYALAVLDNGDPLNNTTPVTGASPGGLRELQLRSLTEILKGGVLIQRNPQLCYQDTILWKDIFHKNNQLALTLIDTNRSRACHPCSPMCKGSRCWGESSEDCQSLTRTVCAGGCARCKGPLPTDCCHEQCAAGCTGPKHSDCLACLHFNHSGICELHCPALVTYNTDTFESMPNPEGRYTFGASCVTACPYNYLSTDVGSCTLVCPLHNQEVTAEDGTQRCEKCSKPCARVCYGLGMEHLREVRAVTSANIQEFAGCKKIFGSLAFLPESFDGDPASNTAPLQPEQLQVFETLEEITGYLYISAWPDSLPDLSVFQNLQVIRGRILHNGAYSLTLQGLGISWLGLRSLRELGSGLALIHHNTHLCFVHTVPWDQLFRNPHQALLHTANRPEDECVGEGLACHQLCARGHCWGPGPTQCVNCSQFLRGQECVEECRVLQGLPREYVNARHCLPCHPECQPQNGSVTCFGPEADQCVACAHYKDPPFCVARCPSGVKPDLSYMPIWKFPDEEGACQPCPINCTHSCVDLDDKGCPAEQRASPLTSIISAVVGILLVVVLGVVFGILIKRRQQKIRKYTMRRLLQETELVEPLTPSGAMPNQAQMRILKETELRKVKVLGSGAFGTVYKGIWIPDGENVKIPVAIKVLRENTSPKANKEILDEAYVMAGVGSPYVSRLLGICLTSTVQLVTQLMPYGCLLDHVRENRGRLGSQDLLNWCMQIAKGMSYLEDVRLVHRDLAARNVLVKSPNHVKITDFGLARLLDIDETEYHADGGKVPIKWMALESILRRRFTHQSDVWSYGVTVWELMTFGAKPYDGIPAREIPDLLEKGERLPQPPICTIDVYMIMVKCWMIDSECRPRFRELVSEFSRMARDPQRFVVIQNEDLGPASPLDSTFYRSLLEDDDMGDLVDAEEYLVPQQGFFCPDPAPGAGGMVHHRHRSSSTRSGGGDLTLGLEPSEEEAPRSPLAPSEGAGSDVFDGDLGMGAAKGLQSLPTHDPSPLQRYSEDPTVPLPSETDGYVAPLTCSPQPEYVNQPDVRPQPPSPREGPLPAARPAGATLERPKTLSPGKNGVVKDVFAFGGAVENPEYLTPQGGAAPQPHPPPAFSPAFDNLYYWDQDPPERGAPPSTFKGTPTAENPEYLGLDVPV
Sequence of epidermal growth factor (EGF) receptor kinase (P00533 25-1210): as the sequence (P00533 25-1210) above

Work on `O=C1OC(c2ccc(O)c(O)c2)=C/C1=C\c1ccc(O)c(O)c1` [BE‐23372M] yielded a pIC50 [1] of 7.52, a pIC50 (erbB‐2) of 6.38 and a pIC50 (p43^v‐abl) of 6.00. The pIC50 (insulin receptor kinase) was 5.48, the pIC50 (p60^c‐src) was 5.35 and the pIC50 (protein kinase C) was 5.39. For the same compound, the “inhibition of Cdc2 kinase” value (Cdc2 kinase) was “not inhibited”, the “inhibition of casein kinase I” value (casein kinase I) was “not inhibited” and the “inhibition of casein kinase II” value (casein kinase II) was “not inhibited”. The “inhibition of cAMP‐dependent protein kinase” value [2] was “not inhibited”, the “mode of inhibition with respect to ATP” value (EGF receptor [3]; ATP) was “competitive” and the “mode of inhibition with respect to the substrate peptide” value (EGF receptor [3]; substrate peptide) was “competitive”. For the same compound, the “Autophosphorylation of EGP receptor in A431 cells” value (EGF receptor [4]) was “inhibited”.
